Results on 18 compounds are retold here after US9226916B2, “Pyrrolidine derivatives” (HOFFMANN-LA ROCHE INC., priority 2009, dated 2016).

The first experiment addresses T1, recombinant human NK3 receptor (Homo sapiens, UniProt P29371).
T1 construct: expressed in transfected cells; host or cells: HEK293 cells, transient expression; membranes
T1 sequence (P29371 1-465): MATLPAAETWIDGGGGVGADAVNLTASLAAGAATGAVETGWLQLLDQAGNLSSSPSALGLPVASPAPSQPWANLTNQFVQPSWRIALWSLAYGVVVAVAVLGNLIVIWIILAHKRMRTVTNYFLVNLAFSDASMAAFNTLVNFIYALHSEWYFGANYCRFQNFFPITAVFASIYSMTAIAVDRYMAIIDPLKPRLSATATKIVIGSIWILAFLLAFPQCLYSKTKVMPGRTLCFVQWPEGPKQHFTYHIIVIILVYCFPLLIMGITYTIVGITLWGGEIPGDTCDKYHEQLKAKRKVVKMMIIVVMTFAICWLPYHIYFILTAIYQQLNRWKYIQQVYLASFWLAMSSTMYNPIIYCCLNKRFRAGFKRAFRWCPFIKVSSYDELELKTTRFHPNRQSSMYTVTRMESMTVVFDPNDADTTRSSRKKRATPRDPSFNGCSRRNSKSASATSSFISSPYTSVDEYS
Description: [3H]SR142801 competition binding assay.
Conditions: not given
As a reminder, the Ki is a dissociation constant, usually derived from enzyme kinetics or from competition with a known ligand. `CN(C(=O)Oc1ccc(F)cc1)[C@@H]1CN(C(=O)C2CCN(C(=O)C3CC(F)C3)CC2)C[C@H]1c1ccc(F)cc1` (stereo partly drawn) [Example 287, [(3S,4R)-1-[1-(3-Fluoro-cyclobutanecarbonyl)-piperidine-4-carbonyl]-4-(4-fluoro-phenyl)-pyrrolidin-3-yl]-methyl-carbamic acid 4-fluoro-phenyl ester]: the Ki amounted to 7.2 nM. On the same count and under the same terms, the value for `CN(C(=O)Oc1ccc(F)cc1)[C@@H]1CN(C(=O)[C@H]2CC[C@H](C#N)CC2)C[C@H]1c1ccc(Cl)cc1` [Example 104, [(3S,4R)-4-(4-Chloro-phenyl)-1-(4-cyano-cyclohexanecarbonyl)-pyrrolidin-3-yl]-methyl-carbamic acid 4-fluoro-phenyl ester] was 7.4 nM. In the case of `CN(C(=O)Oc1ccc(F)cc1)[C@@H]1CN(C(=O)C2CCN(c3ncccc3C#N)CC2)C[C@H]1c1ccc(Cl)cc1` [Example 186, [(3S,4R)-4-(4-Chloro-phenyl)-1-(3′-cyano-3,4,5,6-tetrahydro-2H-[1,2′]bipyridinyl-4-carbonyl)-pyrrolidin-3-yl]-methyl-carbamic acid 4-fluoro-phenyl ester], the Ki is 6 nM. On the same count and under the same terms, with `CN(C(=O)OCCCC(F)(F)F)[C@@H]1CN(C(=O)C2CCN(c3ccc(C#N)cn3)CC2)C[C@H]1c1ccc(Cl)cc1` [Example 127, [(3S,4R)-4-(4-Chloro-phenyl)-1-(5′-cyano-3,4,5,6-tetrahydro-2H-[1,2′]bipyridinyl-4-carbonyl)-pyrrolidin-3-yl]-methyl-carbamic acid 4,4,4-trifluoro-butyl ester] the figure was 4 nM.

Regarding `CN(C(=O)OCCC(F)(F)F)[C@@H]1CN(C(=O)C2CCN(C(=O)C3(C)CC3)CC2)C[C@H]1c1ccc(Cl)c(Cl)c1` (stereo in doubt) [Example 87, {(3S,4R)-4-(3,4-Dichloro-phenyl)-1-[1-(1-methyl-cyclopropanecarbonyl)-piperidine-4-carbonyl]-pyrrolidin-3-yl}-methyl-carbamic acid 3,3,3-trifluoro-propyl ester], the Ki worked out at 9.2 nM. Still for that read-out and setting: the value for `CN(C(=O)Oc1ccc(F)cc1)[C@@H]1CN(C(=O)C2CCN(C(=O)C3(C#N)CC3)CC2)C[C@H]1c1ccc(Cl)c(Cl)c1` [Example 272, [(3S,4R)-1-[1-(1-Cyano-cyclopropanecarbonyl)-piperidine-4-carbonyl]-4-(3,4-dichloro-phenyl)-pyrrolidin-3-yl]-methyl-carbamic acid 4-fluoro-phenyl ester] was 0.8 nM; that for `CC(=O)c1ccc(N2CCC(C(=O)N3C[C@@H](N(C)C(=O)Oc4ccc(F)cc4)[C@H](c4ccc(F)c(Cl)c4)C3)CC2)nc1` [Example 318, [(3S,4R)-1-(5′-Acetyl-3,4,5,6-tetrahydro-2H-[1,2′]bipyridinyl-4-carbonyl)-4-(3-chloro-4-fluoro-phenyl)-pyrrolidin-3-yl]-methyl-carbamic acid 4-fluoro-phenyl ester] was 0.7 nM.

Turning to `CN(C(=O)Oc1ccc(F)cc1)[C@@H]1CN(C(=O)C2CCNC2)C[C@H]1c1ccc(Cl)cc1` (stereo partly drawn) [Example 168, [(3S,4R)-4-(4-Chloro-phenyl)-1-(pyrrolidine-3-carbonyl)-pyrrolidin-3-yl]-methyl-carbamic acid 4-fluoro-phenyl ester], the Ki was 98.4 nM.

Turning to `CN(C(=O)Oc1ccc(F)cc1)[C@@H]1CN(C(=O)C2CCN(c3ccc(F)cn3)CC2)C[C@H]1c1ccc(F)c(Cl)c1` [Example 315, [(3S,4R)-4-(3-Chloro-4-fluoro-phenyl)-1-(5′-fluoro-3,4,5,6-tetrahydro-2H-[1,2′]bipyridinyl-4-carbonyl)-pyrrolidin-3-yl]-methyl-carbamic acid 4-fluoro-phenyl ester], the inhibition constant Ki was found to be 1.7 nM. Same read-out and setting: with `CN(C(=O)Oc1ccc(F)cc1)[C@@H]1CN(C(=O)C2CCN(C(=O)C3(C#N)CC3)CC2)C[C@H]1c1ccc(Cl)cc1` [Example 254, {(3S,4R)-4-(4-Chloro-phenyl)-1-[1-(1-cyano-cyclopropanecarbonyl)-piperidine-4-carbonyl]-pyrrolidin-3-yl}-methyl-carbamic acid 4-fluoro-phenyl ester] the figure was 2 nM; with `CN(C(=O)Oc1ccc(Cl)cc1)[C@@H]1CN(C(=O)C2CCN(c3ccc(C#N)cn3)CC2)C[C@H]1c1ccc(Cl)cc1` [Example 203, [(3S,4R)-4-(4-Chloro-phenyl)-1-(5′-cyano-3,4,5,6-tetrahydro-2H-[1,2′]bipyridinyl-4-carbonyl)-pyrrolidin-3-yl]-methyl-carbamic acid 4-chloro-phenyl ester], 0.3 nM; with `CC(C)N1CC(C(=O)N2CCC(C(=O)N3C[C@@H](N(C)C(=O)Oc4ccc(F)cc4)[C@H](c4ccc(Cl)cc4)C3)CC2)CCC1=O` (stereo partly drawn) [Example 264, {(3S,4R)-4-(4-Chloro-phenyl)-1-[1-(1-isopropyl-6-oxo-piperidine-3-carbonyl)-piperidine-4-carbonyl]-pyrrolidin-3-yl}-methyl-carbamic acid 4-fluoro-phenyl ester], 8.8 nM. With `CN(C(=O)Oc1ccc(F)cc1)[C@@H]1CN(C(=O)C2CCN(C(=O)C3CC(F)(F)C3)CC2)C[C@H]1c1ccc(Cl)cc1` [Example 250, {(3S,4R)-4-(4-Chloro-phenyl)-1-[1-(3,3-difluoro-cyclobutanecarbonyl)-piperidine-4-carbonyl]-pyrrolidin-3-yl}-methyl-carbamic acid 4-fluoro-phenyl Ester], the Ki was 1.4 nM.

With `CN(C(=O)Oc1ccc(F)cc1)[C@@H]1CN(C(=O)C2CCN(C3CCOCC3)CC2)C[C@H]1c1ccc(Cl)cc1` [Example 112, {(3S,4R)-4-(4-Chloro-phenyl)-1-[1-(tetrahydro-pyran-4-yl)-piperidine-4-carbonyl]-pyrrolidin-3-yl}-methyl-carbamic acid 4-fluoro-phenyl ester], the Ki came out at 3.7 nM. Still for that read-out and setting: the value for `CN(C(=O)O[C@H]1CC[C@@H](C)CC1)[C@@H]1CN(C(=O)C2CCN(c3ccc(C#N)cn3)CC2)C[C@H]1c1ccc(Cl)cc1` [Example 220, [(3S,4R)-4-(4-Chloro-phenyl)-1-(5′-cyano-3,4,5,6-tetrahydro-2H-[1,2′]bipyridinyl-4-carbonyl)-pyrrolidin-3-yl]-methyl-carbamic acid 4-methyl-cyclohexyl ester] was 42.8 nM.

Still in this experiment, the particulars now being: hNK-3 receptor affinity; membranes from HEK293 cells transiently expressing recombinant human NK3 receptor; [3H]SR142801; Cheng-Prussoff; read-out: Data Ki.
Turning to `CN(C(=O)O[C@H]1CC[C@@H](C(F)(F)F)CC1)[C@@H]1CN(C(=O)C2CCN(C(=O)C3(C)CC3)CC2)C[C@H]1c1ccc(Cl)c(Cl)c1` [Example 108, {(3S,4R)-4-(3,4-Dichloro-phenyl)-1-[1-(1-methyl-cyclopropanecarbonyl)-piperidine-4-carbonyl]-pyrrolidin-3-yl}-methyl-carbamic acid 4-trifluoromethyl-cyclohexyl ester], the Ki came to 0.7 nM. On the same count and under the same terms, with `CN(C(=O)OC1CCC1)[C@@H]1CN(C(=O)C2CCN(c3ccc(C#N)cn3)CC2)C[C@H]1c1ccc(Cl)cc1` [Example 173, [(3S,4R)-4-(4-Chloro-phenyl)-1-(5′-cyano-3,4,5,6-tetrahydro-2H-[1,2′]bipyridinyl-4-carbonyl)-pyrrolidin-3-yl]-methyl-carbamic acid cyclobutyl ester] the figure was 47 nM; with `CN(C(=O)OCC1(C)CC1)[C@@H]1CN(C(=O)C2CCN(C(=O)C3(C)CC3)CC2)C[C@H]1c1ccc(Cl)c(Cl)c1` [Example 105, {(3S,4R)-4-(3,4-Dichloro-phenyl)-1-[1-(1-methyl-cyclopropanecarbonyl)-piperidine-4-carbonyl]-pyrrolidin-3-yl}-methyl-carbamic acid 1-methyl-cyclopropylmethyl ester], 70.5 nM.
